Test results reported in publication PMC12830207, “Targeting the protein–protein interaction between the CDC37 cochaperone and client kinases by an allosteric RAF dimer breaker” (The Journal of Biological Chemistry, 2025).
“Also recorded” adds a separate entry of the source.

Assays:
[1] = system: CDC37–CRAF interaction; assay: Co-IP of CDC37-FLAG with CRAF-HA in HCT116; assay type: cell-based; conditions: HCT116, 5 µM braftide, three biological replicates
[2] = system: HCT116 cells; conditions: HCT116, previously reported, readout not given; read-out: EC50, braftide, HCT116; cited from earlier work
From the text: Our findings highlight the therapeutic potential of targeting CDC37–client kinase interactions, as oncogenic kinases are intrinsically unstable and thus are more dependent on their association with the HSP90–CDC37 chaperone complex for stability and activation compared with their wildtype counterparts ([4]). […] HCT116 cells harbor an upstream KRAS […]–activating mutation, with a previously reported braftide ...

[3] = system: CRAF–CDC37/HSP90 chaperone complex; assay: Co-IP of MBP-CRAF-FLAG with endogenous CDC37–HSP90 chaperone complex; assay type: cell-based, human (HEK293); conditions: HEK293, 50 μM braftide, 4 h, bortezomib pretreatment, three biological replicates
Procedure: (§1) HEK293 cells were seeded at 1(10)^6 cells per well for a 6-well plate or 5(10)^6 for 10 cm dishes and incubated until 40% to 60% confluency. Transfection was carried out using a 1:3 DNA:PEI-MAX ratio in OPTI-MEM and allowed 48 h for protein expression. For peptide assays, 48 h post-transfection, cells were treated with TAT–braftide carried in OPTI-MEM at indicated concentrations. Cells were harvested in cold PBS. Harvested cells were lysed in 4% SDS or modified radioimmunoprecipitation assay (RIPA) for co-IP experiments. Quantification of total protein by the bicinchoninic acid assay was carried out according to the manufacturer's protocols (Pierce; catalog no.: 23225).
(§2) Transfected HEK293 cells were treated with the indicated treatments and harvested in cold PBS. […] Samples were analyzed via immunoblot.
(§3) Western blot band densities were quantified with ImageJ software (National Institutes of Health) and normalized to the indicated loading control. Statistical significance was determined through one-/two-way ANOVA, where indicated, followed by Tukey's honest significant difference post hoc test with corresponding p values (∗p < 0.05, ∗∗p < 0.002, ∗∗∗p < 0.0002, and ∗∗∗∗p < 0.0001). […]

[4] = system: HCT116 proteome; assay: Global proteomic identification of braftide-regulated proteins (LC–MS/MS) in HCT116; assay type: cell-based, human; conditions: HCT116, 10 μM braftide, 1 h
Procedure: HCT116 cells were treated in the absence and presence of 10 μM TAT–braftide, 1 h, 37 °C. Cell pellets were harvested in PBS and cryopreserved. Samples were sent to be lysed and identified through MS in three biological replicates (LC–MS/MS; The Wistar Institute). Data were processed through the previously reported GO analysis via the Panther database ([42]) and plotted on Origin (OriginLab Corporation). For the volcano plot, the cutoff for the presented data is p = 0.01 (∗∗), q value <0.05 (Student's t test value adjusted for multiple comparisons using the Benjamini–Hochberg false discovery rate correction) and detected in at least two or more replicates. A total of 5405 proteins were identified, emphasizing a twofold change in NeonGreen and in red. Source data are available in the supporting information files.

[5] = system: HCT116 cells; assay: Annexin V apoptosis assay, HCT116; assay type: cell-based; conditions: for apoptotic cell death, braftide + 17-AAG combination versus 17-AAG monotherapy: HCT116, Annexin V, n=3, Fig. S12, B and C
Procedure: HEK293 cells and HCT116 cells were treated with either control or braftide at the indicated concentrations for 4 h. After treatment, both the floating and adherent cell populations were collected and adjusted with PBS (final concentration: 1 × 10^5 cells/ml). The cells were then mixed with the Annexin V (Cytex; FCCH100108) reagent in a 5:1 ratio (100 μl of cells mixed with 20 μl of Annexin V reagent) and allowed to stain in the dark, at room temperature for 15 min. The cells were then analyzed on a Guava Muse Cell Analyzer (Millipore).

[6] = system: CDC37–BRAF interaction; assay: Co-IP of CDC37-FLAG with BRAF-V5 in HEK293; assay type: cell-based, human (HEK293); conditions: HEK293, 25 μM braftide, bortezomib pretreatment
Procedure: as §1, §2, §3

[7] = system: CDC37–AKT1 interaction; assay: Co-IP of CDC37-FLAG with AKT1; assay type: cell-based, human (HEK293); conditions: HEK293, 25 µM braftide, bortezomib pretreated, n=4
Procedure: as §1, §2, §3

[8] = system: HCT116 cells; assay: WST-1 cell viability assay, HCT116; assay type: cell-based; conditions: HCT116, WST-1, 24 h
Procedure: HCT116 and WM3629 cells were seeded onto polylysine-coated, clear-bottomed, 96-well plates at 15(10)^3 cells per well and allowed to incubate for 24 h. Cells were treated with braftide and 17-AAG mixtures at indicated concentrations for 24 h (37 °C). The WST-1 cell viability assay was carried out according to the manufacturer's protocols (Roche; 11644807001) for 4 h, and absorbance readings were taken at 450 nM in a CLARIOstar plate reader. For the dose–response curves of braftide and 17-AAG, the data were fit to the 4-parameter logistic equation (dose–response fitting equation) in GraphPad Prism (Dotmatics): y=A1+(A2−A1)÷(1+10^(LOGx0−x)p)
Error bars are indicative of the SEM of each point.

[9] = system: MAPK proteins (BRAF, CRAF, MEK, pMEK, ERK, pERK); conditions: HCT116, braftide alone; cited from earlier work
Procedure: HCT116 cells were treated with 17-AAG alone or in combination with braftide (Fig. 5, C and D). HSP90 monotherapy (17-AAG) depleted CRAF kinase level at a concentration of 2 μM (Fig. 5C), whereas braftide monotherapy ([23]) depleted RAF kinase levels at a concentration of 10 μM. To investigate potential synergy, we assessed combinatorial treatments in HCT116 cells, using a fixed concentration of 500 nM of the primary drug (braftide) with increasing concentrations (0 to 1 μM) of the secondary drug (17-AAG) (Fig. 5D).

GRKKRRQRRRPQ-miniPEG-TRHVNILLFM [Braftide]
CDC37–CRAF interaction [1]: decreases its association with coimmunoprecipitated BRAF-V5 and CRAF-HA
CDC37–CRAF interaction ([1]; listed as braftide): reduced the CDC37–RAF interaction at lower doses than in HEK293 cells
EC50 [2]: 7.1 ± 0.5 µM
association of CRAF with CDC37 and HSP90 [3]: reduced their association with CDC37 and HSP90 compared with the nontreated control
FoldChange Treat/NoTreat, COA3 ([4]; protein COA3 (Q9Y2R0), q-value 1.02E-05, LFQ, missing values imputed): 76.35
FoldChange Treat/NoTreat, HPX ([4]; protein HPX (P02790), q-value 0.000814707, LFQ): 99.13
FoldChange Treat/NoTreat, PDK2 ([4]; protein PDK2 (Q15119), q-value 1.74E-05, LFQ, missing values imputed): 40.24
FoldChange Treat/NoTreat, RNF169 ([4]; protein RNF169 (Q8NCN4), q-value 4.15E-05, LFQ, missing values imputed): 48.52
FoldChange Treat/NoTreat, TOMM6 ([4]; protein TOMM6 (Q96B49), q-value 1.36E-06, LFQ, missing values imputed): 129.15
apoptosis (Annexin V), HCT116 ([5]; 0, 5, 10, 25, 50, 75, and 100 μM braftide, 4 h, n = 3, listed as braftide): triggered dose-dependent apoptosis; also recorded: HCT116 cells showed higher sensitivity to braftide compared with HEK293
apoptotic cell death, braftide + 17-AAG combination versus 17-AAG monotherapy [5]: synergizes with 17-AAG in HCT116 cells to trigger cell death at lower treatment concentrations
apoptotic cell death, braftide + 17-AAG combination versus 17-AAG monotherapy ([5]; listed as braftide): significant increase in apoptotic cell death with the combination therapy compared with monotherapy
CDC37–BRAF complex [6]: reduced the CDC37–client BRAF–CRAF complex
association of CDC37 with AKT1 [7]: disrupts client AKT1 from CDC37-FLAG in HEK293 cells
association of CDC37 with AKT1 ([7]; listed as braftide): reduced association of CDC37 with AKT1
synergy of braftide and 17-AAG, HCT116 [8]: synergy between braftide and 17-AAG
concentration at which RAF kinase levels are depleted, braftide monotherapy [9]: 10 µM
